Results published in patent publication US8697739B2, “Bicyclic acetyl-CoA carboxylase inhibitors and uses thereof” (Novartis AG, priority 2010, dated 2014).

Target: T1, human acetyl-CoA carboxylase 2 (ACC2) (Homo sapiens, UniProt O00763)
T1 construct: The cDNA encoding amino acids 144 to 2458 of human acetyl-CoA carboxylase 2; made in house; host or cells: Sf9 insect cells (baculovirus, pFastBac1)
Experiment: Acetyl-CoA carboxylase enzyme assay (malonyl-CoA formation by LC/MS/MS)
Type: biochemical
Details: recombinant human ACC2 (aa 144-2458); read-out: IC50 ACC2
Method in brief: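 Malonyl-CoA formation was read by LC/MS/MS MRM against a [13C3]-malonyl-CoA internal standard, after acetic acid quench. The enzyme was baculovirus/Sf9-expressed human ACC2 residues 144–2458, given 15 minutes room-temperature compound preincubation in HEPES pH 7.5 buffer with MgCl2, citrate and DTT. Substrate solution held 50 μM acetyl-CoA, 120 μM ATP and 2 mM KHCO3.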

T1 sequence (O00763 144-2458): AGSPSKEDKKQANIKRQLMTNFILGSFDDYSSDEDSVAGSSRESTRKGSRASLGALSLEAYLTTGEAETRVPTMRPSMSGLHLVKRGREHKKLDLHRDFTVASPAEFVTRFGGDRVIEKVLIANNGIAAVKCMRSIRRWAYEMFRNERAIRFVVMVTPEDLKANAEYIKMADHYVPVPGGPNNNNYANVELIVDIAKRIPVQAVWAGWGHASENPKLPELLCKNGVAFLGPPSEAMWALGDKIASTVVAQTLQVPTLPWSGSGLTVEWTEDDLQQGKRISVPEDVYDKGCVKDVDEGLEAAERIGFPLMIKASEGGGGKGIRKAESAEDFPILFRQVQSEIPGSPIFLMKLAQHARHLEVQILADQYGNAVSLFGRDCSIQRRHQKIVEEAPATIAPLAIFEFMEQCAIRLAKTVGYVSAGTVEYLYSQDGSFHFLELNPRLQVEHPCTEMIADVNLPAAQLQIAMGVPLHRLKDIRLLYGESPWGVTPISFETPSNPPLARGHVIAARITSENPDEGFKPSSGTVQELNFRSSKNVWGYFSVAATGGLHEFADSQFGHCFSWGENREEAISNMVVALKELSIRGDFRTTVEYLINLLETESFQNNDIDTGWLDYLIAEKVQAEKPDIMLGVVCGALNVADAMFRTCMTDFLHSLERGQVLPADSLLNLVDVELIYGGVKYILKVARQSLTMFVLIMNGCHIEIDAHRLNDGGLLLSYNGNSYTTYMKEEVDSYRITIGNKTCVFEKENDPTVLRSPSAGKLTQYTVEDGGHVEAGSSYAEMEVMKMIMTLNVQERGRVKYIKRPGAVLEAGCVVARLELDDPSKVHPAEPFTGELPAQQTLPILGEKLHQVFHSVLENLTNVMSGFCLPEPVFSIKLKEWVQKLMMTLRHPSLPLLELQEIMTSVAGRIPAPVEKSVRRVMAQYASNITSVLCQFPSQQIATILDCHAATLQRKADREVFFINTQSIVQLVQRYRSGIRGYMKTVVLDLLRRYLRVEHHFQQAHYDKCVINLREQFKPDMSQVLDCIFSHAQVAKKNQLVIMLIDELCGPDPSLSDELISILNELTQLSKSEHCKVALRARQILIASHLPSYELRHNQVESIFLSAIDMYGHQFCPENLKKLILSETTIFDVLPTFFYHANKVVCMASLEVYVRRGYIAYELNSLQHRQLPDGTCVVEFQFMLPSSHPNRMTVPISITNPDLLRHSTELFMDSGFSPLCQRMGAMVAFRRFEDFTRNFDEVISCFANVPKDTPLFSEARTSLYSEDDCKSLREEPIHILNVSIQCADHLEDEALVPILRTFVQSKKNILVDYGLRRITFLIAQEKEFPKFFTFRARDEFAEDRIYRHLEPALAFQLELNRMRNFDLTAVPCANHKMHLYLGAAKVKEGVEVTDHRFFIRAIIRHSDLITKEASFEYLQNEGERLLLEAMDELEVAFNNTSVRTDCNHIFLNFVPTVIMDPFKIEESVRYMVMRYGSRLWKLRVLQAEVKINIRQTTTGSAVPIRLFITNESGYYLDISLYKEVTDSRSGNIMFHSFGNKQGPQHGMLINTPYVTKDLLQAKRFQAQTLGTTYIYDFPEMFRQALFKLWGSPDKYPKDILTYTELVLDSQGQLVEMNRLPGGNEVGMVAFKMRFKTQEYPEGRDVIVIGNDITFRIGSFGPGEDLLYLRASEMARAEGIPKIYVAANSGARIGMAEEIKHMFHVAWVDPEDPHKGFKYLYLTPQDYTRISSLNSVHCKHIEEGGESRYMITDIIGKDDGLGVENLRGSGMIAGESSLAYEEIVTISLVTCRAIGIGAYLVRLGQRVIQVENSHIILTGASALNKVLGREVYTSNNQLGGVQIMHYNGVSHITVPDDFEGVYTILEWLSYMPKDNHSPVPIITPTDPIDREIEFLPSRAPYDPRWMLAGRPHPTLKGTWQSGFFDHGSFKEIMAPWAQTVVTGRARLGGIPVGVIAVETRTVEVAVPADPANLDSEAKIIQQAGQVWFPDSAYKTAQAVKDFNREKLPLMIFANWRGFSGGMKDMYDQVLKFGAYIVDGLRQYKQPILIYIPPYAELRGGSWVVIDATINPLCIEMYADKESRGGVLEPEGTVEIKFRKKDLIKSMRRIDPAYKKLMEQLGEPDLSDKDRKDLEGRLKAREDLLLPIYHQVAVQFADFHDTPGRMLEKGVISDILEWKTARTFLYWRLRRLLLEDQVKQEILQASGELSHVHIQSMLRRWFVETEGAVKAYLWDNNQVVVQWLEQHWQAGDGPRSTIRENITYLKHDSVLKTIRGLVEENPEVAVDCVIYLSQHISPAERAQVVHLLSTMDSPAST

| SMILES | IC50 |
| --- | --- |
| Cc1cc(CO)ccc1-c1cc2ccc(S(=O)(=O)N[C@H]3CC[C@H](C(=O)N[C@H](C)c4ccc(F)cc4)CC3)cc2n1C [Example 315, (1r,4R)-N-((R)-1-(4-fluorophenyl)ethyl)-4-(2-(4-(hydroxymethyl)-2-methylphenyl)-1-methyl-1H-indole-6-sulfonamido)cyclohexanecarboxamide] | 20 nM |
| CC(O)Cc1cc2ccc(S(=O)(=O)N[C@H]3CC[C@H](C(=O)N[C@H](C)c4ccc(F)cc4)CC3)cc2[nH]1 (stereo partly drawn) [Example 316, (1r,4R)-N-((R)-1-(4-fluorophenyl)ethyl)-4-(2-(2-hydroxypropyl)-1H-indole-6-sulfonamido)cyclohexanecarboxamide] | 110 nM |
| Cc1cc(CO)ccc1-c1cc2ccc(S(=O)(=O)N[C@H]3CC[C@H](C(=O)N4CCNC(C(F)(F)F)C4)CC3)cc2[nH]1 (stereo partly drawn) [Example 317, 2-(4-(hydroxymethyl)-2-methylphenyl)-N-((1r,4r)-4-(3-(trifluoromethyl)piperazine-1-carbonyl)cyclohexyl)-1H-indole-6-sulfonamide] | 25 nM |
| Cc1cc(CO)ccc1-c1cc2ccc(S(=O)(=O)N[C@H]3CC[C@H](C(=O)N4CCNC(C(F)(F)F)C4)CC3)cc2n1C (stereo partly drawn) [Example 318, 2-(4-(hydroxymethyl)-2-methylphenyl)-1-methyl-N-((1r,4r)-4-(3-(trifluoromethyl)piperazine-1-carbonyl)cyclohexyl)-1H-indole-6-sulfonamide] | 515 nM |
| C[C@@H](NC(=O)[C@H]1CC[C@H](NS(=O)(=O)c2ccc3cc(CCCO)[nH]c3c2)CC1)c1ccc(F)cc1 [Example 319, (1r,4R)-N-((R)-1-(4-fluorophenyl)ethyl)-4-(2-(3-hydroxypropyl)-1H-indole-6-sulfonamido)cyclohexanecarboxamide] | 25 nM |
| Cc1ccccc1-c1cc2ccc(S(=O)(=O)N[C@H]3CC[C@H](C(=O)N4CCNC(C(F)(F)F)C4)CC3)cc2[nH]1 (stereo partly drawn) [Example 320, 2-o-tolyl-N-((1r,4r)-4-(3-(trifluoromethyl)piperazine-1-carbonyl)cyclohexyl)-1H-indole-6-sulfonamide] | 85 nM |
| Cc1ccccc1-c1cc2ccc(S(=O)(=O)N[C@H]3CC[C@H](C(=O)N4CCCC(C(F)(F)F)C4)CC3)cc2[nH]1 (stereo partly drawn) [Example 321, 2-o-tolyl-N-((1r,4r)-4-(3-(trifluoromethyl)piperidine-1-carbonyl)cyclohexyl)-1H-indole-6-sulfonamide] | 250 nM |
| Cc1ccccc1-c1cc2ccc(S(=O)(=O)N[C@H]3CC[C@H](C(=O)N4CCN(C(=O)OC(C)(C)C)C[C@@H]4c4ccccc4)CC3)cc2[nH]1 [Example 322, (S)-tert-butyl 3-phenyl-4-((1r,4S)-4-(2-o-tolyl-1H-indole-6-sulfonamido)cyclohexanecarbonyl)piperazine-1-carboxylate] | < 10 nM |
| O=C([C@H]1CC[C@H](NS(=O)(=O)c2ccc3cc(-c4ccccc4)[nH]c3c2)CC1)N1CCNC(C(F)(F)F)C1 (stereo partly drawn) [Example 323, 2-phenyl-N-((1r,4r)-4-(3-(trifluoromethyl)piperazine-1-carbonyl)cyclohexyl)-1H-indole-6-sulfonamide] | 55 nM |
| Cn1c(-c2ccccc2)cc2ccc(S(=O)(=O)N[C@H]3CC[C@H](C(=O)N4CCNC(C(F)(F)F)C4)CC3)cc21 (stereo partly drawn) [Example 324, 1-methyl-2-phenyl-N-((1r,4r)-4-(3-(trifluoromethyl)piperazine-1-carbonyl)cyclohexyl)-1H-indole-6-sulfonamide] | 40 nM |
| Cc1ccccc1-c1cc2ccc(S(=O)(=O)N[C@H]3CC[C@H](C(=O)N4CCNC[C@@H]4c4ccccc4)CC3)cc2[nH]1 [Example 325, N-((1S,4r)-4-((S)-2-phenylpiperazine-1-carbonyl)cyclohexyl)-2-o-tolyl-1H-indole-6-sulfonamide] | < 10 nM |
| Cc1ccccc1-c1cc2ccc(S(=O)(=O)N[C@H]3CC[C@H](C(=O)N4CCOC[C@@H]4c4ccccc4)CC3)cc2[nH]1 [Example 326, N-((1S,4r)-4-((S)-3-phenylmorpholine-4-carbonyl)cyclohexyl)-2-o-tolyl-1H-indole-6-sulfonamide] | 325 nM |
| Cc1ccccc1-c1cc2ccc(S(=O)(=O)NC3CCC(C(=O)N4CCOCC4c4ccccc4)CC3)cc2[nH]1 [Example 327, N-((1S,4r)-4-((S)-3-phenylmorpholine-4-carbonyl)cyclohexyl)-2-o-tolyl-1H-indole-6-sulfonamide] | < 10 nM |
| CC(C)(C)OC(=O)N1CCN(C(=O)[C@H]2CC[C@H](NS(=O)(=O)c3ccc4cc(-c5ccccc5C(F)(F)F)[nH]c4c3)CC2)[C@@H](c2ccccc2)C1 [Example 328, (S)-tert-butyl 3-phenyl-4-((1r,4S)-4-(2-(2-(trifluoromethyl)phenyl)-1H-indole-6-sulfonamido)cyclohexanecarbonyl)piperazine-1-carboxylate] | 55 nM |
| C[C@@H](NC(=O)[C@H]1CC[C@H](NS(=O)(=O)c2ccc3cc(-c4ccccc4C(F)(F)F)[nH]c3c2)CC1)c1ccc(F)cc1 [Example 329, (1r,4R)-N-((R)-1-(4-fluorophenyl)ethyl)-4-(2-(2-(trifluoromethyl)phenyl)-1H-indole-6-sulfonamido)cyclohexanecarboxamide] | 120 nM |
| O=C([C@H]1CC[C@H](NS(=O)(=O)c2ccc3cc(-c4ccccc4C(F)(F)F)[nH]c3c2)CC1)N1CCCC(C(F)(F)F)C1 (stereo partly drawn) [Example 330, 2-(2-(trifluoromethyl)phenyl)-N-((1r,4r)-4-(3-(trifluoromethyl)piperidine-1-carbonyl)cyclohexyl)-1H-indole-6-sulfonamide] | 3600 nM |
| Cn1c(-c2ccccc2)cc2ccc(S(=O)(=O)N[C@H]3CC[C@H](C(=O)N4CCN[C@H](C(F)(F)F)C4)CC3)cc21 [Example 331, 1-methyl-2-phenyl-N-((1S,4r)-4-((S)-3-(trifluoromethyl)piperazine-1-carbonyl)cyclohexyl)-1H-indole-6-sulfonamide] | 25 nM |
| Cn1c(-c2ccccc2)cc2ccc(S(=O)(=O)N[C@H]3CC[C@H](C(=O)N4CCN[C@@H](C(F)(F)F)C4)CC3)cc21 [Example 332, 1-methyl-2-phenyl-N-((1R,4r)-4-((R)-3-(trifluoromethyl)piperazine-1-carbonyl)cyclohexyl)-1H-indole-6-sulfonamide] | 25 nM |
| O=C([C@H]1CC[C@H](NS(=O)(=O)c2ccc3cc(-c4ccccc4C(F)(F)F)[nH]c3c2)CC1)N1CCNC[C@@H]1c1ccccc1 [Example 333, N-((1S,4r)-4-((S)-2-phenylpiperazine-1-carbonyl)cyclohexyl)-2-(2-(trifluoromethyl)phenyl)-1H-indole-6-sulfonamide] | 65 nM |
| O=C(C1CCC(NS(=O)(=O)c2ccc3cc(-c4ccccc4C(F)(F)F)[nH]c3c2)CC1)N1CCNC(C(F)(F)F)C1 (stereo not drawn) [Example 334, 2-(2-(trifluoromethyl)phenyl)-N-((1r,4r)-4-(3-(trifluoromethyl)piperazine-1-carbonyl)cyclohexyl)-1H-indole-6-sulfonamide] | 1420 nM |
| Cc1ccccc1-c1cc2ccc(S(=O)(=O)N[C@H]3CC[C@H](C(=O)N4CCCC4c4ccccc4)CC3)cc2[nH]1 (stereo partly drawn) [Example 335, N-((1r,4r)-4-(2-phenylpyrrolidine-1-carbonyl)cyclohexyl)-2-o-tolyl-1H-indole-6-sulfonamide] | 25 nM |
